Data taken from patent US7129267B2, “Methods for SHP1 mediated neuroprotection” (Janssen Pharmaceutica N.V., priority 2002, dated 2006).

What follows are compounds tested against SHP1 (Homo sapiens, UniProt P29350) (assay: SHP1 tyrosine phosphatase activity inhibition assay). Conditions: under the assay conditions.
Sequence of SHP1 (P29350 whole entry): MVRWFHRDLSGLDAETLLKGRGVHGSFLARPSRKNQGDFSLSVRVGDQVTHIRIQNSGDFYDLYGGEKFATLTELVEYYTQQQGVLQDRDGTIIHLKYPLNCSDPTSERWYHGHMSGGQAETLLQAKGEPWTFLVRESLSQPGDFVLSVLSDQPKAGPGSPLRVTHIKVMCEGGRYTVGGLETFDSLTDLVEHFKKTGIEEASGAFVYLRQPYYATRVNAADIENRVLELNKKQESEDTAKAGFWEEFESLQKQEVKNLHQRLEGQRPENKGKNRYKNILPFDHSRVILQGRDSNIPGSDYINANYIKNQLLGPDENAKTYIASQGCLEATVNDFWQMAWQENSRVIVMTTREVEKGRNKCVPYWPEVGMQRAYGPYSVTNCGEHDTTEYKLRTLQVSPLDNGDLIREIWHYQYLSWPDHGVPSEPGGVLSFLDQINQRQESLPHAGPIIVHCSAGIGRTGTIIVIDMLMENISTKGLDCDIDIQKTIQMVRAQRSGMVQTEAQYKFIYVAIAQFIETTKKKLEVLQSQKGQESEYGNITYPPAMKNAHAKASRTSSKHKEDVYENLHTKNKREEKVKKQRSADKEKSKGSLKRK
Format: biochemical
Text: The invention further provides a method of identifying an inhibitor of a SHP1 tyrosine phosphatase activity, comprising the steps of: • 1) contacting a test compound with a SHP1 protein or an active fragment thereof; and • 2) determining the ability of the test compound to decrease the tyrosine phosphatase activity of SHP1.
A variety of assay methods can be used to determine the effect of the compound on the tyrosine phosphatase activity of SHP1. Some of the assay methods are disclosed in WO99/54450. For example, SHP1 phosphotase activity can be measured as a function of the ability of SHP1 to dephosphorylate a substrate, such as a phosphorylated JAK2. In particular, a phosphorylated peptide derived from JAK2. The dephosphorylation reaction can be monitored using a malachite green assay (Lanzetta et al., Anal Biochem. 1979, 100:95–7), which measures the release of inorganic phosphate from the substrate. Alternatively, SHP1 phosphotase activity can be measured in vivo by changes in cellular physiology affected by the SHP1 phosphotase activity, such as the inactivation of the EPOR signal transduction pathway.
Compounds of Formula I, II, and III were identified as inhibitors for SHP1 tyrosine phosphatase activity using methods of the invention.
With `O=C1CSC(=S)N1CNc1ccc(NCN2C(=O)CSC2=S)cc1` the IC50 was 4.3 µM. Work on `CC(=O)Nc1ccc(/C=C2/SC(=S)NC2=O)cc1` yielded an IC50 of 25.7 µM. `O=C(O)/C=C/c1ccc(/C=C/C(=O)O)s1` was tested, and the IC50 was 22 µM.
